# In ChEMBL document CHEMBL1201861, “Genomics of Drug Sensitity in Cancer screening data, Wellcome Trust Sanger Institute”:
# pIC50: −log10 of the molar value.
# How the values were obtained:
# Assay in all cases: cells
# D-263MG = assay type: functional, cell-based, Homo sapiens; details: Homo sapiens, D-263MG
# Description: SANGER: Inhibition of human D-263MG cell growth in a cell viability assay.
# DSH1 = assay type: functional, cell-based; details: Homo sapiens;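 also: growth inhibition of human DSH1 cells, measured with a cell viability readout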
# Description: SANGER: Inhibition of human DSH1 cell growth in a cell viability assay.
# ES5 = assay type: functional, cell-based, Homo sapiens; details: Homo sapiens, ES5;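 also: growth inhibition of human ES5 cells, read out by a cell viability assay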
# Description: SANGER: Inhibition of human ES5 cell growth in a cell viability assay.
# ES6 = assay type: functional, cell-based; details: Homo sapiens;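 also: growth inhibition of human ES6 cells, read out with a cell viability assay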
# Description: SANGER: Inhibition of human ES6 cell growth in a cell viability assay.
# ES7 = assay type: functional, cell-based, Homo sapiens; details: Homo sapiens, ES7;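 also: growth inhibition of cultured human ES7 cells, read out as cell viability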
# Description: SANGER: Inhibition of human ES7 cell growth in a cell viability assay.
# ES8 = assay type: functional, cell-based, Homo sapiens; details: Homo sapiens, ES8;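 also: growth inhibition of human ES8 cells, read out with a cell viability assay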
# Description: SANGER: Inhibition of human ES8 cell growth in a cell viability assay.
# EW-13 = assay type: functional, cell-based, Homo sapiens; details: Homo sapiens, EW-13; read-out: IC50;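 also: growth inhibition of EW-13 cells, read out with a cell viability assay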
# Description: SANGER: Inhibition of human EW-13 cell growth in a cell viability assay.
# GB-1 = assay type: functional, cell-based, Homo sapiens; details: Homo sapiens, GB-1;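 also: growth of GB-1 cells judged by a viability assay, IC50 marks the concentration inhibiting growth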
# Description: SANGER: Inhibition of human GB-1 cell growth in a cell viability assay.
# HCC2157 = assay type: functional, cell-based, Homo sapiens; details: Homo sapiens, HCC2157;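 also: growth inhibition of the cancer cell line, read out as cell viability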
# Description: SANGER: Inhibition of human HCC2157 cell growth in a cell viability assay.
# HH = assay type: functional, cell-based, Homo sapiens; details: Homo sapiens, HH
# Description: SANGER: Inhibition of human HH cell growth in a cell viability assay.
# HL-60 = assay type: functional, cell-based, Homo sapiens; details: Homo sapiens, HL-60;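 also: growth inhibition of human HL-60 cells, read out with a cell viability assay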
# Description: SANGER: Inhibition of human HL-60 cell growth in a cell viability assay.
# JVM-2 = assay type: functional, cell-based, Homo sapiens; details: Homo sapiens, JVM-2;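 also: growth inhibition of JVM-2 cells determined by a cell viability assay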
# Description: SANGER: Inhibition of human JVM-2 cell growth in a cell viability assay.
# JVM-3 = assay type: functional, cell-based, Homo sapiens; details: Homo sapiens, JVM-3;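 also: growth inhibition of human JVM-3 cells, read out with a cell viability assay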
# Description: SANGER: Inhibition of human JVM-3 cell growth in a cell viability assay.
# KARPAS-299 = assay type: functional, cell-based, Homo sapiens; details: Homo sapiens, KARPAS-299
# Description: SANGER: Inhibition of human KARPAS-299 cell growth in a cell viability assay.
# KE-37 = assay type: functional, cell-based, Homo sapiens; details: Homo sapiens, KE-37;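 also: growth inhibition of KE-37 cells, read out with a cell viability assay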
# Description: SANGER: Inhibition of human KE-37 cell growth in a cell viability assay.
# KG-1 = assay type: functional, cell-based, Homo sapiens; details: Homo sapiens, KG-1;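 also: growth inhibition of KG-1 cells, read out by a cell viability assay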
# Description: SANGER: Inhibition of human KG-1 cell growth in a cell viability assay.
# KGN = assay type: functional, cell-based, Homo sapiens; details: Homo sapiens, KGN;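 also: growth inhibition of KGN cells, read out with a cell viability assay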
# Description: SANGER: Inhibition of human KGN cell growth in a cell viability assay.
# KINGS-1 = assay type: functional, cell-based, Homo sapiens; details: Homo sapiens, KINGS-1;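 also: cell viability assay measuring suppression of KINGS-1 cell growth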
# Description: SANGER: Inhibition of human KINGS-1 cell growth in a cell viability assay.
# KLE = assay type: functional, cell-based; details: Homo sapiens;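 also: growth inhibition of human KLE cells, read out with a cell viability assay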
# Description: SANGER: Inhibition of human KLE cell growth in a cell viability assay.
# KU812 cell line = assay type: functional, cell-based, Homo sapiens; details: Homo sapiens, KU812;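 also: growth inhibition of KU812 cells, read out with a cell viability assay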
# Description: SANGER: Inhibition of human KU812 cell growth in a cell viability assay.
# LB996-RCC = assay type: functional, cell-based, Homo sapiens; details: Homo sapiens, LB996-RCC
# Description: SANGER: Inhibition of human LB996-RCC cell growth in a cell viability assay.
# LOX IMVI = assay type: functional, cell-based, Homo sapiens; details: Homo sapiens, LOX IMVI
# Description: SANGER: Inhibition of human LOXIMVI cell growth in a cell viability assay.
# LS-513 = assay type: functional, cell-based, Homo sapiens; details: Homo sapiens, LS-513
# Description: SANGER: Inhibition of human LS-513 cell growth in a cell viability assay.
# LU-134-A = assay type: functional, cell-based, Homo sapiens; details: Homo sapiens, LU-134-A
# Description: SANGER: Inhibition of human LU-134-A cell growth in a cell viability assay.
# MEG-01 = assay type: functional, cell-based, Homo sapiens; details: Homo sapiens, MEG-01;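 also: growth inhibition of MEG-01 cells, read out by a cell viability assay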
# Description: SANGER: Inhibition of human MEG-01 cell growth in a cell viability assay.
# MHH-NB-11 = assay type: functional, cell-based, Homo sapiens; details: Homo sapiens, MHH-NB-11;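 also: growth inhibition of human MHH-NB-11 cells, read out by a cell viability assay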
# Description: SANGER: Inhibition of human MHH-NB-11 cell growth in a cell viability assay.
# ML-2 = assay type: functional, cell-based, Homo sapiens; details: Homo sapiens, ML-2;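 also: growth inhibition of ML-2 cells, measured with a cell viability readout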
# Description: SANGER: Inhibition of human ML-2 cell growth in a cell viability assay.
# MZ7-mel = assay type: functional, cell-based, Homo sapiens; details: Homo sapiens, MZ7-mel;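 also: growth inhibition of human MZ7-mel cells, measured by a cell viability assay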
# Description: SANGER: Inhibition of human MZ7-mel cell growth in a cell viability assay.
# Mo = assay type: functional, cell-based, Homo sapiens; details: Homo sapiens, Mo
# Description: SANGER: Inhibition of human Mo-T cell growth in a cell viability assay.
# NCI-H1650 = assay type: functional, cell-based, Homo sapiens; details: Homo sapiens, NCI-H1650;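 also: growth inhibition of human NCI-H1650 cells measured by a cell viability assay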
# Description: SANGER: Inhibition of human NCI-H1650 cell growth in a cell viability assay.
# NCI-H226 = assay type: functional, cell-based, Homo sapiens; details: Homo sapiens, NCI-H226;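 also: cell viability read-out used to gauge growth inhibition of the cells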
# Description: SANGER: Inhibition of human NCI-H226 cell growth in a cell viability assay.
# NCI-H747 = assay type: functional, cell-based, Homo sapiens; details: Homo sapiens, NCI-H747;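 also: growth inhibition of human NCI-H747 cells, read out by a cell viability assay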
# Description: SANGER: Inhibition of human NCI-H747 cell growth in a cell viability assay.
# SNU1 = assay type: functional, cell-based, Homo sapiens; details: Homo sapiens, SNU1;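 also: growth inhibition of human NCI-SNU-1 cells, measured with a cell viability assay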
# Description: SANGER: Inhibition of human NCI-SNU-1 cell growth in a cell viability assay.
# NH-12 = assay type: functional, cell-based, Homo sapiens; details: Homo sapiens, NH-12;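 also: growth inhibition of NH-12 cells, read out with a cell viability assay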
# Description: SANGER: Inhibition of human NH-12 cell growth in a cell viability assay.
# NOMO-1 = assay type: functional, cell-based, Homo sapiens; details: Homo sapiens, NOMO-1;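 also: growth inhibition of human NOMO-1 cells measured by a cell viability assay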
# Description: SANGER: Inhibition of human NOMO-1 cell growth in a cell viability assay.
# NOS-1 = assay type: functional, cell-based, Homo sapiens; details: Homo sapiens, NOS-1;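 also: growth inhibition of the human NOS-1 cell line, read out with a cell viability assay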
# Description: SANGER: Inhibition of human NOS-1 cell growth in a cell viability assay.
# NTERA-2-cl-D1 = assay type: functional, cell-based, Homo sapiens; details: Homo sapiens, NTERA-2-cl-D1;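 also: inhibition of cell growth, measured with a cell viability assay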
# Description: SANGER: Inhibition of human NTERA-S-cl-D1 cell growth in a cell viability assay.
# OS-RC-2 = assay type: functional, cell-based, Homo sapiens; details: Homo sapiens, OS-RC-2;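 also: growth inhibition of human OS-RC-2 cells, measured by a cell viability assay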
# Description: SANGER: Inhibition of human OS-RC-2 cell growth in a cell viability assay.
# PSN1 = assay type: functional, cell-based, Homo sapiens; details: Homo sapiens, PSN1;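 also: suppression of growth of human PSN1 cells, read out by a cell viability assay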
# Description: SANGER: Inhibition of human PSN1 cell growth in a cell viability assay.
# QIMR-WIL = assay type: functional, cell-based, Homo sapiens; details: Homo sapiens, QIMR-WIL;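 also: growth inhibition of QIMR-WIL cells, read out with a cell viability assay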
# Description: SANGER: Inhibition of human QIMR-WIL cell growth in a cell viability assay.
# Ramos-2G6-4C10 = assay type: functional, cell-based, Homo sapiens; details: Homo sapiens, Ramos-2G6-4C10;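 also: growth inhibition of the cell line, measured by a cell viability read-out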
# Description: SANGER: Inhibition of human Ramos-2G6-4C10 cell growth in a cell viability assay.
# SF-539 = assay type: functional, cell-based, Homo sapiens; details: Homo sapiens, SF-539;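 also: Read-out is a cell viability assay, with IC50 reflecting inhibition of cell growth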
# Description: SANGER: Inhibition of human SF539 cell growth in a cell viability assay.
# SW872 = assay type: functional, cell-based, Homo sapiens; details: Homo sapiens, SW872;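 also: growth inhibition of SW872 cells, read out by a viability assay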
# Description: SANGER: Inhibition of human SW872 cell growth in a cell viability assay.
# 8-MG-BA = assay type: functional, cell-based, Homo sapiens; details: Homo sapiens, 8-MG-BA;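 also: growth inhibition of 8-MG-BA cells, read out with a cell viability assay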
# Description: SANGER: Inhibition of human 8-MG-BA cell growth in a cell viability assay.
# BV-173 = assay type: functional, cell-based, Homo sapiens; details: Homo sapiens, BV-173
# Description: SANGER: Inhibition of human BV-173 cell growth in a cell viability assay.
# TE-11 = assay type: functional, cell-based; details: Homo sapiens;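 also: growth inhibition of human TE-11 cells, read out by a cell viability assay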
# Description: SANGER: Inhibition of human TE-11 cell growth in a cell viability assay.
# TE-12 = assay type: functional, cell-based, Homo sapiens; details: Homo sapiens, TE-12;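 also: growth inhibition of TE-12 cells, read out by a cell viability assay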
# Description: SANGER: Inhibition of human TE-12 cell growth in a cell viability assay.
# TE-9 = assay type: functional, cell-based, Homo sapiens; details: Homo sapiens, TE-9;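 also: cell growth inhibition, measured with a cell viability readout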
# Description: SANGER: Inhibition of human TE-9 cell growth in a cell viability assay.
# CCRF-CEM = assay type: functional, cell-based, Homo sapiens; details: Homo sapiens, CCRF-CEM;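 also: inhibition of CCRF-CEM cell growth, measured by a cell viability assay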
# Description: SANGER: Inhibition of human CCRF-CEM cell growth in a cell viability assay.
# COLO-320-HSR = assay type: functional, cell-based, Homo sapiens; details: Homo sapiens, COLO-320-HSR;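 also: growth inhibition of COLO-320-HSR cells, determined with a cell viability assay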
# Description: SANGER: Inhibition of human COLO-320-HSR cell growth in a cell viability assay.
smiles,measurement,setting,value
CN(C)CCOc1ccc(-c2nc(-c3ccncc3)c(-c3ccc4c(c3)CC/C4=N\O)[nH]2)cc1 [SB590885],pIC50,D-263MG,< 5.30
same,pIC50,DSH1,< 5.30
same,pIC50,ES5,< 5.30
same,pIC50,ES6,< 5.30
same,pIC50,ES7,< 5.30
same,pIC50,ES8,< 5.30
same,pIC50,EW-13,< 5.30
same,pIC50,GB-1,< 5.30
same,pIC50,HCC2157,< 5.30
same,pIC50,HH,< 5.30
same,pIC50,HL-60,< 5.30
same,pIC50,JVM-2,< 5.30
same,pIC50,JVM-3,< 5.30
same,pIC50,KARPAS-299,< 5.30
same,pIC50,KE-37,< 5.30
same,pIC50,KG-1,< 5.30
same,pIC50,KGN,< 5.30
same,pIC50,KINGS-1,< 5.30
same,pIC50,KLE,< 5.30
same,pIC50,KU812 cell line,< 5.30
same,pIC50,LB996-RCC,< 5.30
same,pIC50,LOX IMVI,5.50
same,pIC50,LS-513,< 5.30
same,pIC50,LU-134-A,< 5.30
same,pIC50,MEG-01,< 5.30
same,pIC50,MHH-NB-11,< 5.30
same,pIC50,ML-2,< 5.30
same,pIC50,MZ7-mel,< 5.30
same,pIC50,Mo,< 5.30
same,pIC50,NCI-H1650,< 5.30
same,pIC50,NCI-H226,< 5.30
same,pIC50,NCI-H747,< 5.30
same,pIC50,SNU1,5.54
same,pIC50,NH-12,< 5.30
same,pIC50,NOMO-1,< 5.30
same,pIC50,NOS-1,< 5.30
same,pIC50,NTERA-2-cl-D1,< 5.30
same,pIC50,OS-RC-2,< 5.30
same,pIC50,PSN1,5.73
same,pIC50,QIMR-WIL,< 5.30
same,pIC50,Ramos-2G6-4C10,< 5.30
same,pIC50,SF-539,< 5.30
same,pIC50,SW872,< 5.30
same,pIC50,8-MG-BA,< 5.30
same,pIC50,BV-173,6.11
same,pIC50,TE-11,< 5.30
same,pIC50,TE-12,< 5.30
same,pIC50,TE-9,< 5.30
same,pIC50,CCRF-CEM,< 5.30
same,pIC50,COLO-320-HSR,< 5.30
C[C@@H](Oc1cc(-c2cnn(C3CCNCC3)c2)cnc1N)c1c(Cl)ccc(F)c1Cl [CRIZOTINIB],pIC50,D-263MG,< 5.70
same,pIC50,DSH1,< 5.70
same,pIC50,ES5,< 5.70
same,pIC50,ES6,< 5.70
same,pIC50,ES7,< 5.70
same,pIC50,ES8,< 5.70
same,pIC50,EW-13,< 5.70
same,pIC50,GB-1,< 5.70
same,pIC50,HCC2157,< 5.70
same,pIC50,HH,< 5.70
same,pIC50,HL-60,< 5.70
same,pIC50,JVM-2,< 5.70
same,pIC50,JVM-3,< 5.70
same,pIC50,KARPAS-299,5.85
same,pIC50,KE-37,< 5.70
same,pIC50,KG-1,< 5.70
same,pIC50,KGN,< 5.70
same,pIC50,KINGS-1,6.13
same,pIC50,KLE,< 5.70
same,pIC50,KU812 cell line,< 5.70
same,pIC50,LB996-RCC,< 5.70
same,pIC50,LOX IMVI,< 5.70
same,pIC50,LS-513,< 5.70
same,pIC50,LU-134-A,< 5.70
same,pIC50,MEG-01,6.07
same,pIC50,MHH-NB-11,< 5.70
same,pIC50,ML-2,< 5.70
same,pIC50,MZ7-mel,< 5.70
same,pIC50,Mo,< 5.70
same,pIC50,NCI-H1650,< 5.70
same,pIC50,NCI-H226,< 5.70
same,pIC50,NCI-H747,< 5.70
same,pIC50,SNU1,< 5.70
same,pIC50,NH-12,< 5.70
same,pIC50,NOMO-1,< 5.70
same,pIC50,NOS-1,< 5.70
same,pIC50,NTERA-2-cl-D1,< 5.70
same,pIC50,OS-RC-2,< 5.70
same,pIC50,PSN1,< 5.70
same,pIC50,QIMR-WIL,< 5.70
same,pIC50,Ramos-2G6-4C10,< 5.70
same,pIC50,SF-539,6.69
same,pIC50,SW872,< 5.70
same,pIC50,8-MG-BA,< 5.70
same,pIC50,BV-173,5.97
same,pIC50,TE-11,< 5.70
same,pIC50,TE-12,< 5.70
same,pIC50,TE-9,< 5.70
same,pIC50,CCRF-CEM,< 5.70
same,pIC50,COLO-320-HSR,< 5.70
